Holding throughout (format): in vivo
In one experiment the test system is Boophilus microplus. Put plainly: Boophilus microplus injection test. The note with it: application rate 20 μg/animal; injection into abdomen; assessed after 7 days. Put shortly: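 Steps: dilute compound in DMSO to the desired concentration; inject 1 μl abdominally into 5 engorged adult females; keep in climate-controlled dishes; at 7 days score fertile egg laying, incubating doubtful eggs until hatch at about 42 days.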

In a further experiment the test system is Lucilia cuprina. Put plainly: Lucilia cuprina test. The note with it: application rate 100 ppm; L1 larvae; after 2 days. The essentials: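 Mortality read at 2 days as percent larvae killed (100% = all, 0% = none). Test used roughly 20 first-instar larvae on minced horsemeat dosed with water-diluted DMSO formulation of compound.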
In the next experiment the test system is Ctenocephalides felis. Put plainly: Ctenocephalides felis in vitro contact test with adult cat fleas. The following applies: application rate 5 μg/cm^2 (500 g/ha); after 48 h; fleas dead or moribund. The essentials: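 Adult Ctenocephalides felis (5-10 per tube) were held 48 h at room temperature in tubes whose inner walls carried dried active ingredient, e.g. 5 μg/cm^2 from a 900 ppm acetone coating. Percent efficacy reflects fleas motionless or uncoordinated after being knocked to the tube base.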

In experiment [1] the test system is Anopheles funestus strain FUMOZ-R. Put plainly: Anopheles test (ANPHFU surface treatment). The following applies: 24 hours after contact, read-out: efficacy (mortality in %). Here is the method: Anopheles Test (ANPHFU Surface Treatment)
Solvent: acetone+2000 ppm rapeseed oil methyl ester (RME)
To produce an appropriate active ingredient formulation, the active ingredient is dissolved in the solvent (2 mg/ml). The active ingredient formulation is pipetted onto a glazed tile and, after it has dried off, adult mosquitoes of the species Anopheles funestus strain FUMOZ-R (Hunt et al., Med Vet Entomol. 2005 September; 19 (3):271-5) are placed onto the treated tile. The exposure time is 30 minutes.
24 hours after contact with the treated surface, mortality in % is determined. 100% means that all the mosquitoes have been killed; 0% means that none of the mosquitoes have been killed.

SMILES strings stand for the structures.

As a reminder, the mortality is the percentage killed.

For `Cn1nc(C(F)(F)C(F)(F)F)c(C(F)(F)F)c1-n1cc(-c2cccc(NC(=O)c3ccncc3)c2)cn1` [Example 1-001, N-{3-[2′-Methyl-5′-(pentafluoroethyl)-4′-(trifluoromethyl)-2′H-1,3′-bipyrazol-4-yl]-phenyl}isonicotinamide], the “efficacy (laying of fertile eggs)” value in the experiment on Boophilus microplus turned out to be 100%. For the same compound, the “efficacy (kill in %)” value in the experiment on Lucilia cuprina is 100%. In addition, the efficacy in the experiment on Ctenocephalides felis stood at 100%. Besides, in experiment [1] (application rate 20 mg/m^2, exposure 30 minutes), the mortality at 20 mg/m2 was 90 to 100%. The mortality at 100 mg/m2 in experiment [1] (application rate 100 mg/m^2, exposure 30 minutes) lay in the range of 90 to 100%.
